One test deals with T1, SpCas9:gRNA complex (Streptococcus pyogenes serotype M1, UniProt Q99ZW2).
T1 construct: made in house; host or cells: E. coli Rosetta (DE3)
The test can be described thus: Bio-layer interferometry (BLI), compound-SpCas9 interaction. To be noted: 1 μM biotinylated compound on streptavidin sensors, SpCas9:gRNA 0.15-1 μM; read-out: dissociation constant. The test is classed as binding, S. pyogenes. As to the method: Compound-SpCas9 interaction in BLI. The experiments were performed in a 96-well format with 180 μL reaction volume using […] and streptavidin sensors. 1 μM of the biotinylated compound was loaded onto the sensors for 180 s in 20 mM Tris buffer (100 mM KCl, 5 mM MgCl2, 1 mM DTT, 0.01% Tween, pH 7.4). Compound-loaded sensors were then allowed to associate with different concentrations of the SpCas9:gRNA complex (0.15-1 μM) for 300 s, followed by dissociation in reaction buffer. The reference sensor was loaded with compound and allowed to associate and dissociate in reaction buffer alone. Response curves were fitted with a 2:1 stoichiometric model and a global fit steady-state analysis was performed using manufacturer's protocol. Experiments were performed in triplicate.
Competition experiments were performed using biotin-linker fragment. In this experiment, streptavidin sensors were pre-incubated with 10 μM of biotin-linker for 10 min before dipping into a solution of either 1 μM BRD7087-biotin or reaction buffer alone. Sensors were then allowed to associate with different concentration of SpCas9:gRNA complex (0.15-1 μM) or buffer alone.

For the next test, the target named is SpCas9 (Streptococcus pyogenes serotype M1, UniProt Q99ZW2). The test can be described thus: In vitro pulldown from WM793-SpCas9 cell lysate. The format is binding, S. pyogenes. Also noted: host or cells: U2OS.eGFP.PEST. To be noted: streptavidin magnetic beads, 12 h.
SpCas9, sequence (Q99ZW2 whole entry): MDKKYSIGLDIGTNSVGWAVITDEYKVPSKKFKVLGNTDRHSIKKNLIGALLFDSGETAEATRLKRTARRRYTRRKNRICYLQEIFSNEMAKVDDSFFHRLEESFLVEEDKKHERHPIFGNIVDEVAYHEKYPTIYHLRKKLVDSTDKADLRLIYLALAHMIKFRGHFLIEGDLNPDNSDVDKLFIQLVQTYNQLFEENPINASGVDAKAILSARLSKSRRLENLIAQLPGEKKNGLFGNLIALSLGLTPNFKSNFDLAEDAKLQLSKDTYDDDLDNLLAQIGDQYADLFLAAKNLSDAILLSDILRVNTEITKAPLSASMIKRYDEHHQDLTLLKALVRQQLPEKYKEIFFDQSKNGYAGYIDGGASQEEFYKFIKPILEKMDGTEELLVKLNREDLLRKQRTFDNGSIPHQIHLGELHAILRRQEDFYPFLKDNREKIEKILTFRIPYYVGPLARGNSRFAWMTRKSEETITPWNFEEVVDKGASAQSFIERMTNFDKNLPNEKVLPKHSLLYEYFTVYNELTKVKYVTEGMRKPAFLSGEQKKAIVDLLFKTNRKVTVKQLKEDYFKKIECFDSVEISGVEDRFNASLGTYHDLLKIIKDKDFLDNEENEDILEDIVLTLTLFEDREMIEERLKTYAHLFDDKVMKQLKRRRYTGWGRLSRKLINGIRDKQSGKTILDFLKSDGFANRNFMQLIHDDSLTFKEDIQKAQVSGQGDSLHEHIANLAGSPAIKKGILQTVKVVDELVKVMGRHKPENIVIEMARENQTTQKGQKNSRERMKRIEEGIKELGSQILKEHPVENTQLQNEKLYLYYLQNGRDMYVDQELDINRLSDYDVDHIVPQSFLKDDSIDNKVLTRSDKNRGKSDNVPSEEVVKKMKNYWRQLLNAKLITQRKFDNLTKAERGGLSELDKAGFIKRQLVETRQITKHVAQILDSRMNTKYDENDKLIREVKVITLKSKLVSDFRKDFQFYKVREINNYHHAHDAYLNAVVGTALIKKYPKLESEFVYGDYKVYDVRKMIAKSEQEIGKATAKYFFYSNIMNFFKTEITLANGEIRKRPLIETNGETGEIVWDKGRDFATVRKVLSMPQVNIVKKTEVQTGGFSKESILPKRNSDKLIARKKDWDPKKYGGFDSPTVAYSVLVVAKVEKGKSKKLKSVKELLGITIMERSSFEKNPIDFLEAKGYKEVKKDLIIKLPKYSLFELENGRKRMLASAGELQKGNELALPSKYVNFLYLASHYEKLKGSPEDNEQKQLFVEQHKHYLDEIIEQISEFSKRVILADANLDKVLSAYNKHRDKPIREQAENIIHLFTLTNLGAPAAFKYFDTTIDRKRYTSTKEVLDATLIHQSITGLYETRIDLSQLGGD

T1 sequence (Q99ZW2 whole entry, one chain of several): as the sequence (Q99ZW2 whole entry) above

Turning to `O=C(CCCC[C@@H]1SC[C@@H]2NC(=O)N[C@@H]21)NCCOCCOCCOCCC(=O)Nc1cccc(-c2ccc3c(c2)[C@H]2[C@H](CCN2Cc2ccncc2)[C@@H](CO)N3)c1` [BRD3539, N-(2-(2-(2-(3-((3-((3aR,4S,9bR)-4-(Hydroxymethyl)-1-(pyridin-4-ylmethyl)-2,3,3a,4,5,9b-hexahydro-1H-pyrrolo[3,2-c]quinolin-8-yl)phenyl)amino)-3-oxopropoxy)ethoxy)ethoxy)ethyl)-5-((3aS,4S,6aR)-2-oxohexahydro-1H-thieno[3,4-d]imidazol-4-yl) pentanamide], the Kd at SpCas9:gRNA complex was found to be 700 nM.

On to `Cc1ccc(S(=O)(=O)N2CC[C@@H]3[C@H](CNC(=O)CCOCCOCCOCCNC(=O)CCCC[C@@H]4SC[C@@H]5NC(=O)N[C@@H]54)Nc4ccc(-c5ccccc5F)cc4[C@@H]32)cc1` [biotinylated BRD0539, N-(1-((3aR,4R,9bR)-8-(2-fluorophenyl)-1-tosyl-2,3,3a,4,5,9b-hexahydro-1H-pyrrolo[3,2-c]quinolin-4-yl)-3-oxo-6,9,12-trioxa-2-azatetradecan-14-yl)-5-((3aS,4S,6aR)-2-oxohexahydro-1H-thieno[3,4-d]imidazol-4-yl) pentanamide], for which the “pulldown of SpCas9 from WM793-SpCas9 cell lysate” value at SpCas9 is reported as “able to pulldown SpCas9”.

Values taken from patent US12391685B2, “Inhibitors of RNA-guided nuclease target binding and uses thereof” (THE BROAD INSTITUTE, INC., priority 2018, dated 2025).
